Common to all, as to assay type: biochemical
For one assay, the target named is human PDE6A/6B (Homo sapiens (Human), UniProt P16499+P35913). The assay can be described thus: PDE enzyme assay using [3H]cGMP as substrate (radiometric SPA). As to conditions: human PDE6A/6B dimer 5 nM, [3H]cGMP 80 nM; read-out: PDE 6AB IC50. The source says:
(§1) The nucleotide sequences encoding full-length human PDE1A (NP_001003683.1) and PDE1C (NP_005011.1) are inserted into pFastBac1 (Invitrogen) vector with an N-terminal HIS tag. The nucleotide sequences encoding full-length human PDE4D (NP_006194.2) and catalytic domain (residue 641-1141) of PDE3A (NP_000912.3) are inserted into pFastBac1 (Invitrogen) vector with a C-terminal HIS tag. The nucleotide sequences encoding full-length human PDE6A (NP_000431.2) and PDE6B (AAH00249.1) are inserted into pFastBacDual (Invitrogen) vector with an N-terminal HIS tag and N-terminal Flag tag, respectively, for production of PDE6A/6B dimer. Baculovirus generation and protein expression in Sf9 cells are carried out according to the protocol of Bac-to-Bac Baculovirus Expression system (Invitrogen). The nucleotide sequence encoding full-length human PDE1B (NP_000915.1) is inserted into pIEX4 (Novagen) with a C-terminal HIS tag, and both protein productions in Sf9 cells are carried out according to the vendor's protocol (Novagen). The His tagged PDE proteins are purified using Ni-NTA agarose (Qiagen) followed by size exclusion chromatography on a SUPERDEX® 200 column (GE Healthcare) in storage buffer (20 mM Tris-HCl, pH7.5, 150 mM NaCl, 10% Glycerol). The Flag tagged PDE proteins including PDE6A/6B are purified using anti-Flag M2-agarose (Sigma), after purification through NiNTA column chromatography and eluted in storage buffer (50 mM Tris-HCl, pH7.5, 150 mM NaCl, 10% Glycerol, 0.1 mg/ml Flag peptide). All purified proteins are stored at −80° C. in small aliquots.
(§2) All 3′,5′ cyclic nucleotide phosphodiesterase (PDE) enzyme activities are measured with a radiometric enzyme assay based on SPA detection system (scintillation proximity assay). Compounds to be tested are diluted in pure dimethyl sulfoxide (DMSO) using ten point concentration response curves. Maximal compound concentration in the reaction mixture is either 10 or 100 μM. Compounds at the appropriate concentration are pre-incubated with either of the PDE enzymes for 30 minutes before the reaction is started by the addition of substrate. Reactions are allowed to proceed for 60 minutes at room temperature. Next, reactions are stopped by addition of SPA beads. Samples are read 12 hours later in a MICROBETA™ TRILUX® Counter. “IC50” refers to the concentration of the compound that produces 50% of the maximal inhibitory response possible for that compound. IC50 values are calculated by plotting the normalized data vs. log [compound] and fitting the data using a four parameter logistic equation.
The following phosphodiesterase activities are measured using [^3H]cGMP as reaction substrate: human PDE6A/6B. The catalytic active form of human PDE6 is a dimer composed of a α (human PDE6A) and β subunits (human PDE6B). The dimer of human PDE6A/6B is produced by the coexpression and purification strategy, using two purification steps, i.e., NiNTA and anti-FLAG Sepharose chromatography. The assay buffer is prepared to give a final concentration in the assay of 50 mM Tris-HCl, 8.3 mM MgCl2, 1.7 mM EDTA and 0.1% Bovine serum albumin at pH 7.5. The final enzyme concentration is 5 nM. The reactions are started by addition of the substrate, [^3H]cGMP, to give a final concentration of 80 nM.

Another assay has as its target human PDE1C (Homo sapiens (Human), UniProt Q14123). The assay is described as follows: Ca2+-calmodulin dependent PDE enzyme assay (radiometric SPA, [3H]cAMP). As to conditions: human PDE1C 0.0012 nM, [3H]cAMP 47 nM; read-out: PDE 1C IC50.
Source text: as §1, §2
(§3) PDE1B, PDE1A, and PDE1C are cloned and purified following standard protein generation procedures. The assay buffer is prepared to give a final concentration in the assay of 50 mM Tris-HCl, 50 mM MgCl2, 4 mM CaCl2, 0.1% Bovine serum albumin and 6 U/ml Calmodulin in water, at pH 7.5. The final enzyme concentration is 0.25, 0.074 and 0.0012 nM, for PDE1A, PDE1B and PDE1C respectively. The reactions are started by addition of the substrate, [^3H]cAMP, to give a final concentration of 47 nM.

A further assay has as its target human PDE1A (Homo sapiens (Human), UniProt P54750). Described as above. To be noted: human PDE1A 0.25 nM, [3H]cAMP 47 nM; read-out: PDE 1A IC50.
Source text: as §1, §2, §3

The target in a further assay is human PDE1B (Homo sapiens (Human), UniProt Q01064). The assay is described as above. To be noted: human PDE1B 0.074 nM, [3H]cAMP 47 nM; read-out: PDE 1B IC50.
Source text: as §1, §2, §3

The next assay deals with human PDE4D (Homo sapiens (Human), UniProt Q08499). The assay is described as follows: PDE enzyme assay using [3H]cAMP as substrate (radiometric SPA). To be noted: human PDE4D 0.021 nM, [3H]cAMP 47 nM; read-out: PDE 4D IC50.
human PDE4D, sequence (Q08499 other isoform, or with tags, fused parts or gaps): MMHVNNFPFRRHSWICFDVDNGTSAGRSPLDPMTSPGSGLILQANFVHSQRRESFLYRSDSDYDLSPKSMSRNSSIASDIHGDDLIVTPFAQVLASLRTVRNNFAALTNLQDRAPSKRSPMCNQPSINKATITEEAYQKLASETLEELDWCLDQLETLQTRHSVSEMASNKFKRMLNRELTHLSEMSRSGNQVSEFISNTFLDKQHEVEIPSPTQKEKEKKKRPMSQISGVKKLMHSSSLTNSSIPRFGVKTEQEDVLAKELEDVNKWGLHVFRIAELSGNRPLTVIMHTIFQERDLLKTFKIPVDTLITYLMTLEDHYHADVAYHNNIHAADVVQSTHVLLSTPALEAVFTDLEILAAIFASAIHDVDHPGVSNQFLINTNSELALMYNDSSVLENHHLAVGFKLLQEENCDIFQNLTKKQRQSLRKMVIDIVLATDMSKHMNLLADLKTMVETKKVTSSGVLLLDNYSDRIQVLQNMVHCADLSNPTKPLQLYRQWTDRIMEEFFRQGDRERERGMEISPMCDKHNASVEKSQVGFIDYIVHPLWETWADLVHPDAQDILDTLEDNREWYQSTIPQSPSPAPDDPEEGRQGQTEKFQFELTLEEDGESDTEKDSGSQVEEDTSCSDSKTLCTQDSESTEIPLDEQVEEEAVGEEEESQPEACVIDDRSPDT
Source text: as §1, §2
(§4) The following phosphodiesterase activities are measured using [^3H]cAMP as reaction substrate: human PDE3A (catalytic domain) and human PDE4D. Both enzymes are cloned and purified following standard procedures. The assay buffer is prepared to give a final concentration in the assay of 50 mM Tris-HCl, 8.3 mM MgCl2, 1.7 mM ethylenediaminetetraacetic acid (EDTA) and 0.1% Bovine serum albumin at pH 7.5. Final enzyme concentrations are 0.008 and 0.021 nM for PDE3A and PDE4D, respectively. Reactions are started by addition of the substrate, [^3H]cAMP, to give a final concentration of 47 nM.

Assay [1] deals with human PDE3A (catalytic domain) (Homo sapiens (Human), UniProt Q14432). The assay is described as above. To be noted: human PDE3A catalytic domain 0.008 nM, [3H]cAMP 47 nM.
human PDE3A (catalytic domain), sequence (Q14432 641-1141): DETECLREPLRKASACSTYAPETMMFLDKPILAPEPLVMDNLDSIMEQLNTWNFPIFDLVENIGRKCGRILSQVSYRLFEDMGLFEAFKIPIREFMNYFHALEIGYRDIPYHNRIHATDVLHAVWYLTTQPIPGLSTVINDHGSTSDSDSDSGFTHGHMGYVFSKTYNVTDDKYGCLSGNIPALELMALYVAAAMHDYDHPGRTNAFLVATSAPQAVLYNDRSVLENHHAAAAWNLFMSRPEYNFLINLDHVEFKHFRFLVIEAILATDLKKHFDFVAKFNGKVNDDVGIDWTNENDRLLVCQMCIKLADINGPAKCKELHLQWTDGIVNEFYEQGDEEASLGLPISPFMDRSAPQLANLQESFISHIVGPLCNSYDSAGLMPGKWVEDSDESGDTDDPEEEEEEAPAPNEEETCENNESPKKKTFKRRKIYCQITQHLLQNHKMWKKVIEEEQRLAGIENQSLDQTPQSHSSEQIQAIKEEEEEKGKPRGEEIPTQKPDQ
Source text: as §1, §2, §4

Structures are written as SMILES.

By IC50 is commonly meant the midpoint of a concentration-inhibition curve.

human PDE6A/6B, sequence (P16499 whole entry, stated change not applied, the tested form may be a part): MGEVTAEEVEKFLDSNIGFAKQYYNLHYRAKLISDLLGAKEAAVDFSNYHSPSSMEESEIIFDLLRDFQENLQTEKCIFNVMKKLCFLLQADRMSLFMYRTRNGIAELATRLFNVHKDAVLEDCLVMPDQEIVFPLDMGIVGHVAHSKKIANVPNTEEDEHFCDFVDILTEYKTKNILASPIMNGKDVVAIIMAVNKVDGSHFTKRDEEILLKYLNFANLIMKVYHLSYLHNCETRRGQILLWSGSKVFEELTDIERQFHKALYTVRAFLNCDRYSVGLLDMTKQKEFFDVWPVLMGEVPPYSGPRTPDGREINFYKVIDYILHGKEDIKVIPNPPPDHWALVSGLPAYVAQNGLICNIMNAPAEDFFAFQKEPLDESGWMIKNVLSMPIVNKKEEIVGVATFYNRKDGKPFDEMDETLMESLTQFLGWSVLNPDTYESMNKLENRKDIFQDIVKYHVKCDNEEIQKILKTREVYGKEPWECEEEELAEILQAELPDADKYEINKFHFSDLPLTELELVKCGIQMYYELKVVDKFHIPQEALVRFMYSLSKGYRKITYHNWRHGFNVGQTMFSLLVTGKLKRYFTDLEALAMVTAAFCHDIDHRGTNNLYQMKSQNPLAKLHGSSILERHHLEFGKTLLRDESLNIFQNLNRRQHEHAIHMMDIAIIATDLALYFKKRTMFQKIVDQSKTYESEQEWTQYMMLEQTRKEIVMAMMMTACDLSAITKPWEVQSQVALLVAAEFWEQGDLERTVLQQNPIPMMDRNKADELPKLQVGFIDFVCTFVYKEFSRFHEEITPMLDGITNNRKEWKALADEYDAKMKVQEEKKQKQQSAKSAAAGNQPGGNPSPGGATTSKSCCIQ
human PDE6A/6B, sequence (P35913 other isoform, or with tags, fused parts or gaps isoform P35913-2): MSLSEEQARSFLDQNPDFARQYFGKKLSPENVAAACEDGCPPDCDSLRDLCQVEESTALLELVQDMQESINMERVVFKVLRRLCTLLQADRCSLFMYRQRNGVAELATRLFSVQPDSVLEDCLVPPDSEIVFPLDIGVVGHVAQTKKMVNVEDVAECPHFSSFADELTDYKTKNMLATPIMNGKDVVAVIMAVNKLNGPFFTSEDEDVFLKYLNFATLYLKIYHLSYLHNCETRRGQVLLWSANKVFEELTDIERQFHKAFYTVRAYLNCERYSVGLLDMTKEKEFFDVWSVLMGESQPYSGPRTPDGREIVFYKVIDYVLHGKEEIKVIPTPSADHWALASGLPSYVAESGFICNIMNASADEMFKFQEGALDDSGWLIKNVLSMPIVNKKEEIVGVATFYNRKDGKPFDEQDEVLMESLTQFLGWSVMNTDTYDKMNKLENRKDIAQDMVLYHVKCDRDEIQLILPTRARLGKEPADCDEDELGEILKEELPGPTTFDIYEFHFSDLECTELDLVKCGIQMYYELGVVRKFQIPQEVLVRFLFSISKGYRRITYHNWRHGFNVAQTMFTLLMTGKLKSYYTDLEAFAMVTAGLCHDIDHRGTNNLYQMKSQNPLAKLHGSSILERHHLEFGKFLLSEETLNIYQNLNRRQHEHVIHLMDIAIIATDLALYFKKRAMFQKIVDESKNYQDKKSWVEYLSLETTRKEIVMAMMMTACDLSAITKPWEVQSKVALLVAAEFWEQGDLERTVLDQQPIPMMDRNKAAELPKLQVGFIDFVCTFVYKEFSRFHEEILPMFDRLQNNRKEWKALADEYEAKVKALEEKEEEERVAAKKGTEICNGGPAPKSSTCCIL

As for `CCCCn1c(=O)c2nnc(C3(C)CC3)n2c2ncc(CC)cc21` [Example 8, 5-butyl-3-ethyl-9-(1-methylcyclopropyl)pyrido[3,2-e][1,2,4]triazolo[4,3-a]pyrazin-6(5H)-one], the 50% inhibitory concentration (IC50) at human PDE6A/6B was 3290 nM; on human PDE1C, 2.14 ± 0.997 nM; on human PDE1A it was 8.01 ± 3.55 nM; on human PDE1B, 9.34 ± 4.33 nM; at human PDE4D it was 957 nM; in assay [1], above 100000 nM.

For the compound `CCCn1c(=O)c2nnc(C3(C4CC4)CC3)n2c2ncc(C)cc21` [Example 3, 9-([1,1′-Bi(cyclopropan)]-1-yl)-3-methyl-5-propylpyrido[3,2-e][1,2,4]triazolo[4,3-a]pyrazin-6(5H)-one], the IC50 at human PDE6A/6B is above 10000 nM; on human PDE1C it was 2.77 ± 0.636 nM; at human PDE1A, 2.59 ± 1.69 nM; at human PDE1B it was 3.41 ± 1.52 nM; at human PDE4D, 2120 nM; in assay [1] it was above 100000 nM.

Turning to `CCCCn1c(=O)c2nnc(C3(C)CC3)n2c2ncc(CO)cc21` [Example 12, 5-Butyl-3-(hydroxymethyl)-9-(1-methylcyclopropyl)pyrido[3,2-e][1,2,4]triazolo[4,3-a]pyrazin-6(5H)-one], the IC50 on human PDE6A/6B was 3060 ± 1450 nM; at human PDE1C it was 4.02 ± 0.167 nM; at human PDE1A, 23 ± 3.62 nM; on human PDE1B it was 17.4 ± 10 nM; on human PDE4D, 5130 ± 2140 nM; in assay [1], at least 93400 nM.

For `CCCCn1c(=O)c2nnc(C3(C4CC4)CC3)n2c2nc(C)c(C)cc21` [Example 7, 9-([1,1′-Bi(cyclopropan)]-1-yl)-5-butyl-2,3-dimethylpyrido[3,2-e][1,2,4]triazolo[4,3-a]pyrazin-6(5H)-one], the IC50 on human PDE6A/6B is 1200 nM; at human PDE1C it was below 0.5 nM; at human PDE1A, 0.343 ± 0.765 nM; at human PDE1B, 0.4 ± 0.867 nM; on human PDE4D, 3020 nM; in assay [1], 71200 nM.

`CCCCn1c(=O)c2nnc(C3(C4CC4)CC3)n2c2ncc(C(C)C)cc21` [Example 10, 9-([1,1′-bi(cyclopropan)]-1-yl)-5-butyl-3-isopropylpyrido[3,2-e][1,2,4]triazolo[4,3-a]pyrazin-6(5H)-one]: the IC50 is 611 nM at human PDE6A/6B; below 0.5 nM at human PDE1C; 0.26 ± 0.589 nM on human PDE1A; 0.396 ± 0.749 nM on human PDE1B; 972 nM on human PDE4D; above 100000 nM in assay [1].

With `O=c1c2nnc(C3(C4CC4)CC3)n2c2nc(O)ccc2n1CC1CC1` [Example 5, 9-([1,1′-bi(cylopropan)]-1-yl)-5-(cyclopropylmethyl)-2-hydroxypyrido[3,2-e][1,2,4]triazolo[4,3-a]pyrazin-6(5H)-one], the IC50 was above 10000 nM at human PDE6A/6B; 0.931 ± 0.132 nM at human PDE1C; 2.75 ± 2.11 nM on human PDE1A; 2.41 ± 0.846 nM at human PDE1B; 14700 ± 8240 nM on human PDE4D; 22900 ± 1140 nM in assay [1].

Take `CCC(Cn1c(=O)c2nnc(C3(C4CC4)CC3)n2c2ncccc21)OC` (single isomer, unassigned) [Example 4b, 9-([1,1′-bi(cyclopropan)]-1-yl)-5-(2-methoxybutyl)pyrido[3,2-e][1,2,4]triazolo[4,3-a]pyrazin-6(5H)-one]: the concentration for half-maximal inhibition (IC50) on human PDE1C is 1.46 ± 0.642 nM; on human PDE1A it was 15.1 ± 2.84 nM; at human PDE1B, 25.8 ± 0.614 nM; on human PDE4D it was above 100000 nM.

`CCCCn1c(=O)c2nnc(C3(C4CC4)CC3)n2c2ncc(CO)cc21` [Example 11]: the half-maximal inhibitory concentration (IC50) at human PDE1C was below 0.5 nM; at human PDE4D, 5560 nM.

With `CCCCn1c(=O)c2nnc(C3(C4CC4)CC3)n2c2nc(C)ccc21` [Example 13, 9-([1,1′-bi(cyclopropan)]-1-yl)-5-butyl-2-methylpyrido[3,2-e][1,2,4]triazolo[4,3-a]pyrazin-6(5H)-one], the half-inhibitory concentration (IC50) was 2990 nM at human PDE6A/6B; below 0.5 nM on human PDE1C; 0.816 ± 0.198 nM at human PDE1A; 1.13 ± 0.254 nM on human PDE1B; 2090 nM at human PDE4D; 19200 nM in assay [1].

On to `CCC(Cn1c(=O)c2nnc(C3(C4CC4)CC3)n2c2ncccc21)OC` (single isomer, unassigned) [Example 4a, 9-([1,1′-bi(cyclopropan)]-1-yl)-5-(2-methoxybutyl)pyrido[3,2-e][1,2,4]triazolo[4,3-a]pyrazin-6(5H)-one], for which the concentration for half-maximal inhibition (IC50) at human PDE6A/6B is above 10000 nM; on human PDE1C, 1.49 nM; at human PDE1A, 26.8 nM; at human PDE1B, 40.1 nM; on human PDE4D, above 100000 nM; in assay [1], above 100000 nM.

For the compound `CCCCn1c(=O)c2nnc(C3(C4CC4)CC3)n2c2ncc(CC)cc21` [Example 9, 9-([1,1′-Bi(cyclopropan)]-1-yl)-5-butyl-3-ethylpyrido[3,2-e][1,2,4]triazolo[4,3-a]pyrazin-6(5H)-one], the IC50 at human PDE1C is below 0.5 nM; on human PDE4D, 675 nM.

As for `CCCCn1c(=O)c2nnc(C3(C4CC4)CC3)n2c2ncc(C)cc21` [Example 1, 9-([1,1′-bi(cyclopropan)]-1-yl)-5-butyl-3-methylpyrido[3,2-e][1,2,4]triazolo[4,3-a]pyrazin-6(5H)-one], the half-maximal inhibitory concentration (IC50) at human PDE6A/6B is at least 3450 nM; at human PDE1C, below 0.508 nM; on human PDE1A, 0.366 ± 0.765 nM; on human PDE1B it was 0.406 ± 1.08 nM; at human PDE4D, 1590 ± 217 nM; in assay [1], above 50000 nM.

Consider `CCCCn1c(=O)c2nnc(C3(C)CC3)n2c2ncc(C)cc21` [Example 6, 5-butyl-3-methyl-9-(1-methylcyclopropyl)pyrido[3,2-e][1,2,4]triazolo[4,3-a]pyrazin-6(5H)-one], for which the IC50 on human PDE6A/6B was 9590 nM; at human PDE1C, 2.57 ± 0.544 nM; at human PDE1A, 11.6 ± 7.55 nM; at human PDE1B, 15.4 ± 0.0529 nM; on human PDE4D, 6010 nM; in assay [1], above 100000 nM.

As to `CCC(Cn1c(=O)c2nnc(C3(C4CC4)CC3)n2c2ncccc21)OC` (racemic) [Example 4, rac-9-([1,1′-Bi(cyclopropan)]-1-yl)-5-(2-methoxybutyl)-pyrido[3,2-e][1,2,4]triazolo[4,3-a]pyrazin-6(5H)-one], the IC50 on human PDE6A/6B is above 10000 nM; at human PDE1C, 0.609 ± 0.128 nM; on human PDE1A it was 13.9 ± 2.06 nM; at human PDE1B, 33.5 ± 6.26 nM; at human PDE4D it was 33600 nM; in assay [1], above 100000 nM.
